For one compound, Ki results are on record in patent US6495699B2, “Metalloproteinase inhibitors, pharmaceutical compositions containing them, and their use” (Agouron Pharmaceuticals Inc., priority 1996, dated 2002).

Assay [1] addresses T1, fibroblast collagenase-1 catalytic domain (HFC) (Homo sapiens, UniProt P03956).
T1 construct: The catalytic domain of human collagenase-1 was expressed as a fusion protein with ubiquitin in E. coli; ubiquitin (cleaved yes); made in house; host or cells: E. coli
T1 sequence (P03956 100-269 limits assumed): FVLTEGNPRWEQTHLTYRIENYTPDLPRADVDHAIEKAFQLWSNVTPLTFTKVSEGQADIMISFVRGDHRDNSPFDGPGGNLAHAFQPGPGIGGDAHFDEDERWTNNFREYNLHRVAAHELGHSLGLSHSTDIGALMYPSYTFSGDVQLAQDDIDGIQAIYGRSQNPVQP
Put plainly: Fluorometric MCA-peptide hydrolysis assay, fibroblast collagenase-1 (HFC). As to conditions: apparent Ki; 10 μM MCA peptide substrate, 37° C., pH 7.5; read-out: HFC (Ki,app). The format is biochemical. A digest of the protocol: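 Human collagenase-1 catalytic domain, expressed in E. coli as ubiquitin fusion, was assayed with 10 μM MCA-Pro-Leu-Gly-Leu-DPA-Ala-Arg-NH2 at 37 °C in Tricine pH 7.5, 2% DMSO, over 60 min (ex 328/em 393 nm). Ki,app came from steady-state rates fitted to competitive or Morrison tight-binding equations.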

Assay [2] addresses T2, human collagenase-3 (Coll3) (Homo sapiens, UniProt P45452).
T2 construct: the catalytic domain was liberated by treatment with 2 mM APMA at room temperature overnight; ubiquitin (N, cleaved yes); made in house; host or cells: E. coli
Put plainly: Fluorometric MCA-peptide hydrolysis assay, collagenase-3 (Coll3). The class given is biochemical. As to conditions: apparent Ki; 10 μM MCA peptide substrate, 37° C., pH 7.5; read-out: Coll3 (Ki,app).

In the case of `CNC(=O)[C@@H](NC(=O)[C@@H](CC(=O)O)n1ccc(-c2ccc(-c3ccc(C#N)cc3)cc2)c1)C(C)(C)C` [Example 5(c), 3(R)-[3-(4′-Cyanobiphenyl-4-yl)-1H-pyrrol-1-yl]-N-[2,2-dimethyl-1(S)-(methylcarbamoyl)propyl]succinamic Acid], the Ki is 1500 nM in assay [1] and 0.049 nM in assay [2].
